Measured values: patent publication US8722096B2, “Lipoic acid pellets” (Aptalis Pharma Limited, priority 2006, dated 2014)

Key:
[1] = Stability of lipoic acid in ethanol/phosphate buffer solutions; type: physicochemical; conditions: ethanol/phosphate buffer 50 mM pH 6.8, 80:20 to 90:10; room temperature, protected from light
Procedure: In case the application in the solvent form is chosen, for example ethanol, acetone or other solvents or their mixtures thereof can be used. Also other mixtures of organic solvents with buffer solutions can be used, for example mixtures of ethanol and phosphate buffers. These mixtures can be composed by ethanol/phosphate buffer 50 mM pH:6.8 in proportions ranging from 80:20 to 90:10. In these solutions, lipoic acid is stable for at least 24 hours if stored at room temperature and protected from light. Lipoic acid is dissolved in these solvents at an optimal concentration ranging from 20 to 30% w/w, depending on the type of solvent or solvent mixture used. Application of the lipoic acid solution on the core is performed by wetting and subsequent evaporation of the solvent in presence of air at a temperature lower than 40° C., preferably ranging between 36 and 38° C. This procedure yields active cores with a low content of residual solvents.

[2] = gives polymerization products; cited from earlier work

O=C(O)CCCCC1CCSS1 (centres unmarked) [lipoic acid, 1,2-dithiolan-3-pentanoic acid]
time for which lipoic acid is stable in solution [1]: at least 24 hours
stability under environmental conditions [2]: unstable under various environmental conditions
